Laboratory results: US12643853B2, “Cannabigerol proline cocrystals” (Manoira Corporation, priority 2019, dated 2026)

Assays:
[1] = Solid-state stability of cannabigerol Form I at 50° C.; format: physicochemical; conditions: oven at 50° C. for 10 minutes; for solid form by XRPD after heating and cooling: then allowed to cool
Procedure: A study was carried out to assess the stability of cannabigerol Form I under conditions of temperatures commonly reached during processing and storage. Cannabigerol Form I (50 mg) was placed in an oven at 50° C. for 10 minutes. […] The sample was allowed to cool after which time a solid was produced.

[2] = sealed container, 40° C. and 75% relative humidity, 8 weeks
Procedure: (§1) X-Ray Powder Diffraction Characterisation: X-ray powder diffraction patterns for the samples were acquired on a Bruker D8 diffractometer using CuKα radiation (40 kV, 40 mA), θ-2θ goniometer, V4 receiving slits, a Ge monochromator and a Lynxeye detector. The instrument is performance checked using a certified Corundum standard (NIST 1976). The data were collected over an angular range of 4° to 30° 2Θ using a step size of 0.05° 2Θ and a step time of 4 seconds. Samples were run under ambient conditions as flat plate specimens using powder as received. Approximately, 35 mg of the sample was gently packed into a cavity cut into polished, zero background (510) silicon wafer. The software used for data collection and analysis was Diffrac Plus XRD Commander and Diffrac Plus EVA respectively.
A study was carried out to examine the physical stability of the 1:2 cannabigerol L-proline cocrystal with respect to solid form conversion or deliquescence over time under accelerated conditions. 1:2 Cannabigerol L-proline cocrystal (50 mg) was placed in a sealed container at 40° C. and 75% relative humidity and stored under these conditions for 8 weeks. […] The sample was analysed by XRPD to observe any potential form changes.

[3] = oven at 100° C. for 20 hours
Procedure: as §1

Row | Compound | physical state after heating [1] | solid form by XRPD after heating and cooling [1] | solid form by XRPD after heating and cooling ([1]; listed as cannabigerol Form I) | physical state after heating ([1]; listed as cannabigerol Form I) | physical state / deliquescence after storage [2] | solid form conversion by XRPD after storage ([2]; XRPD) | solid form conversion by XRPD after high temperature storage [3]
1 | CCCCCc1cc(O)c(C/C=C(\C)CCC=C(C)C)c(O)c1 [Cannabigerol Form I, 2-[(2E)-3,7-dimethylocta-2,6-dienyl]-5-pentyl-benzene-1,3-diol] | melted to produce an oil | undergone a polymorph transition to form a new polymorphic form (designated Form III) | undergone a form conversion to a previously unidentified polymorph (designated Form III) | became a liquid |  |  | 
2 | CCCCCc1cc(O)c(C/C=C(\C)CCC=C(C)C)c(O)c1.O=C(O)[C@@H]1CCCN1.O=C(O)[C@@H]1CCCN1 [1:2 cannabigerol L-proline cocrystal] |  |  |  |  | completely solid with no signs of deliquescence | retained its original crystalline form | retained its original crystalline form
